Source: paper PMC9986306, “Beyond CBD: Inhibitory effects of lesser studied phytocannabinoids on human voltage-gated sodium channels” (Frontiers in Physiology, 2023)
Marks after values point to notes of the source that are not given here.

Columns and labels:
[1] = molecular target: T1, human NaV1.1 channel (SCN1A, HEK293T cells) (Homo sapiens, UniProt P35498); assay: Planar patch-clamp, inhibition of peak sodium current (IC50 protocol); type: cell-based; settings: mean ± SEM
T1 construct: expressed in transfected cells
Experimental: (§1) HEK293T cells stably expressing SCN1A or SCN2A and CHO cells stably expressing SCN8A or SCN9A were maintained as previously described ([Richards et al., 2018]; [Milligan et al., 2022]).
(§2) Patch-clamp recordings were made using a Patchliner® (Nanion Technologies, Munich, Germany) in the whole-cell configuration as previously described ([Richards et al., 2018]; [Milligan et al., 2022]). Briefly, cells were prepared in suspension at a density of 1 × 10^6-5 × 10^7 cells/mL. The external recording solution comprised (in mM): 140 NaCl, 4 KCl, 1 MgCl2, 2 CaCl2, 5 D-glucose, 10 HEPES, pH 7.4 with NaOH, ∼295 mOsm. The internal recording solution comprised (in mM): 50 CsCl, 60 CsF, 10 NaCl, 20 EGTA, 10 HEPES, pH 7.2 with CsOH, ∼285 mOsm. Medium single-hole planar NPC-16 chips with an average resistance of ∼2.5 MΩ were used. Chip and whole-cell capacitance were fully compensated, and 50% series resistance compensation applied. Recordings were acquired at 50 kHz with the low pass filter set to 10 kHz in PATCHMASTER (HEKA Instruments, NY, United States) and performed at 27°C. Offline analysis was performed using Microsoft Excel, MatLab R2019a (MathWorks) and GraphPad Prism 8 (Molecular Devices).
(§3) To determine half-maximal inhibitory concentrations (IC50), cells were held at −80 mV, stepped to −120 mV for 200 ms followed by 50 ms test depolarization to 0 mV every 2 s for 30 s in the presence of vehicle control (DMSO). The cells were then exposed to an individual phytocannabinoid (CBD, CBGA, CBDVA, CBG, CBCA or CBC) at concentrations between 0.1 and 100 μM, sequentially for 5 min. Currents for individual cells were averaged over 24 s periods directly before application and following a 5 min exposure of compound. Leak subtraction was applied before normalization of current amplitude. Normalized mean data were fit to the Hill equation.

[2] = molecular target: T2, human NaV1.2 channel (SCN2A, HEK293T cells) (Homo sapiens, UniProt Q99250); assay: as above; type: cell-based; settings: mean ± SEM
T2 construct: expressed in transfected cells
Experimental: as §1, §2, §3

[3] = molecular target: T3, human NaV1.6 channel (SCN8A, CHO cells) (Homo sapiens, UniProt Q9UQD0); assay: as above; type: cell-based; settings: mean ± SEM
T3 construct: expressed in transfected cells
Experimental: as §1, §2, §3

[4] = molecular target: T4, human NaV1.7 channel (SCN9A, CHO cells) (Homo sapiens, UniProt Q15858); assay: as above; type: cell-based; settings: mean ± SEM
T4 construct: expressed in transfected cells
Experimental: as §1, §2, §3

[5] = molecular target: T1, human NaV1.1 channel (SCN1A, HEK293T cells); assay: Planar patch-clamp, biophysical properties (activation, SSFI, recovery from SSFI); type: cell-based; settings: change vs vehicle DMSO at IC50 concentration (CBD 18.5 μM, CBGA 13.6 μM, CBDVA 50 μM)
Experimental: as §1, §2
(§4) Voltage protocols were used, as previously described ([Richards et al., 2018]). Briefly, to study the voltage-dependence of activation, cells were held at −120 mV and depolarized to test potentials, in 5 mV increments, between −120 mV and +50 mV for 100 ms. To study steady-state fast inactivation, cells were held at conditioning pre-pulse potentials ranging from −120 mV to +30 mV in 5 mV increments from a holding potential of −120 mV and a test pulse at 5 mV for 20 ms. Recovery from fast inactivation was studied by pre-pulsing the cells to 0 mV from a holding potential of −120 mV for 50 ms, to fully inactivate channels. The voltage was then stepped back to the holding potential for variable interpulse intervals (ipi from 0 to 39 ms in 3 ms increments). To test channel availability, the voltage was stepped to 0 mV for 50 ms.
(§5) To examine the voltage-dependence of activation, normalized current-voltage (I-V) relationships were converted to conductance (G) using the following equation: G = I/(V−V r ) where Vr is the reversal potential for Na^+. The voltage-dependence of conductance and availability were normalized and fitted to a Boltzmann equation: G = 1/(1 + exp [(V−V 0.5)/a]), where a is the slope of the half-maximum, V is the potential of the given pulse, and V 0.5 is the potential for the half-maximal activation/inactivation. The time course of inactivation was fitted to a single exponential function I/Imax = I0+A*exp (-t-t0/τ)+C, where I0 is the non-inactivating component, Imax is the peak current, t is time, and A is the component for the time constant τ. Time constants were plotted against voltage and the data fitted with a decaying exponential equation Y = span*exp (−K*x)+plateau, where span is the starting point of the curve, K is the decay factor, plateau is the value the curve decays to, and x is time. To measure recovery from inactivation, normalized currents were plotted against ipi and data fitted with equation I/I max = 1-exp/(rc + x), where I max is maximal current; rc recovery rate constant; x is time. Peak current (I) was plotted as fractional recovery against the recovery period by normalizing to the maximum current (Imax) during the conditioning potentials.

[6] = molecular target: T2, human NaV1.2 channel (SCN2A, HEK293T cells); assay: as above; type: cell-based; settings: change vs vehicle DMSO at IC50 concentration (CBD 18.4 μM, CBGA 14.7 μM, CBDVA 60 μM)
Experimental: as §1, §2, §4, §5

[7] = molecular target: T4, human NaV1.7 channel (SCN9A, CHO cells); assay: as above; type: cell-based; settings: change vs vehicle DMSO at IC50 concentration (CBD 11.9 μM, CBGA 16.4 μM, CBDVA 60 μM)
Experimental: as §1, §2, §4, §5

[8] = tested on: Scn1a+/− mouse model of DS; design: method as in Anderson et al., 2021a; Anderson et al., 2021b; settings: Scn1a+/− mice, ref Anderson et al., 2021a, 2021b; cited from earlier work
6-Hz acute seizure model = tested on: 6-Hz acute seizure model; design: method as in Anderson et al., 2021b; settings: monotherapy; ref Anderson et al., 2021b; cited from earlier work

T4 sequence (Q15858 whole entry): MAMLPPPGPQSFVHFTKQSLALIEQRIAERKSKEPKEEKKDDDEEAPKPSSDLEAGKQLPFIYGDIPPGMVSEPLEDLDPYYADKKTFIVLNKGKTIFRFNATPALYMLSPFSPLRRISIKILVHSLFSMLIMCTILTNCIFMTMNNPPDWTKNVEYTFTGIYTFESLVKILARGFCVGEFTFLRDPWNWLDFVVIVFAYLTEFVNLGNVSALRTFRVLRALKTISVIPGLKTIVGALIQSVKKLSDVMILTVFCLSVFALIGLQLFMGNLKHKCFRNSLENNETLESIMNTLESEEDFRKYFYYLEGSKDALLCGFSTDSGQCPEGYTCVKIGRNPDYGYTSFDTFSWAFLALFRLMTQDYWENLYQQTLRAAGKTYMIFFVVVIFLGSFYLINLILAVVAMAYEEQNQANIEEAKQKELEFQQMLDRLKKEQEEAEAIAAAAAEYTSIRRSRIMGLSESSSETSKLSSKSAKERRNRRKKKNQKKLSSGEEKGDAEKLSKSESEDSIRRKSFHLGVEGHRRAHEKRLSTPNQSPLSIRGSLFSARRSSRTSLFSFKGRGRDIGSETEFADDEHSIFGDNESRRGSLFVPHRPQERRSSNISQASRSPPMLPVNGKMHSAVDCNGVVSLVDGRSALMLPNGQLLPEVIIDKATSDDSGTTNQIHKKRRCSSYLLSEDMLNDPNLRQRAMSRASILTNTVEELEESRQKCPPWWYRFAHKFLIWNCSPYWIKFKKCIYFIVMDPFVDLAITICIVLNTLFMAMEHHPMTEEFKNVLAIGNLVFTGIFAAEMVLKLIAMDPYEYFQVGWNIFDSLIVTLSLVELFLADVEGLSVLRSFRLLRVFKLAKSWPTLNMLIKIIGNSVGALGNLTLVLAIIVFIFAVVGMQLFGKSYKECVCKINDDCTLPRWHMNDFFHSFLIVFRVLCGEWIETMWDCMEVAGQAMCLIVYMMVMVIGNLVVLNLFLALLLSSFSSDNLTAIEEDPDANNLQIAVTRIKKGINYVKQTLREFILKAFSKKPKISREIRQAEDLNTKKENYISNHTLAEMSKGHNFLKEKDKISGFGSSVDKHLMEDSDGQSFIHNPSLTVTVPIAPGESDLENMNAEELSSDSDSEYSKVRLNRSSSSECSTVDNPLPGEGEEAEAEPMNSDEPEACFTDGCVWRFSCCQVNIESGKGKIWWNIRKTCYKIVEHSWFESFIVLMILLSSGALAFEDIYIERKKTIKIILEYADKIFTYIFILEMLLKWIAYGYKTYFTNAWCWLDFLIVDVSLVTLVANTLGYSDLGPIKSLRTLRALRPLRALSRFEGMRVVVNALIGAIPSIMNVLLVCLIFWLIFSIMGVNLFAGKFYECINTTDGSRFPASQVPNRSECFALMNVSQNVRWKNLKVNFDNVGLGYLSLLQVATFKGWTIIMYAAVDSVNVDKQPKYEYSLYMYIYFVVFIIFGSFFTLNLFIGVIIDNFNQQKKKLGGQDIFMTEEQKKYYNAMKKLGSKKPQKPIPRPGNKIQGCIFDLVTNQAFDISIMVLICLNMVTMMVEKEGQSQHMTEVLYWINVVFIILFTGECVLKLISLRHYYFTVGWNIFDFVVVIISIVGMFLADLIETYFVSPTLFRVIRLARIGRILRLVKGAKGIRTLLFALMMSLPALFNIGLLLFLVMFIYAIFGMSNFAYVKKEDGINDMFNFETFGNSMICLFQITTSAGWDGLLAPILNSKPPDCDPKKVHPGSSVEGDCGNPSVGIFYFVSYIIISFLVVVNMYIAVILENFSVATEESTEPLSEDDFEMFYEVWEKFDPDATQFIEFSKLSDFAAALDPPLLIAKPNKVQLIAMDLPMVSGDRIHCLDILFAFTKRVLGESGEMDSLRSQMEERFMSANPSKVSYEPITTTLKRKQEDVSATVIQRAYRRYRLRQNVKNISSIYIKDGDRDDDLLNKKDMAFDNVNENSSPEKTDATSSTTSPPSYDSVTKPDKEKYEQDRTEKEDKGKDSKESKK
T2 sequence (Q99250 whole entry): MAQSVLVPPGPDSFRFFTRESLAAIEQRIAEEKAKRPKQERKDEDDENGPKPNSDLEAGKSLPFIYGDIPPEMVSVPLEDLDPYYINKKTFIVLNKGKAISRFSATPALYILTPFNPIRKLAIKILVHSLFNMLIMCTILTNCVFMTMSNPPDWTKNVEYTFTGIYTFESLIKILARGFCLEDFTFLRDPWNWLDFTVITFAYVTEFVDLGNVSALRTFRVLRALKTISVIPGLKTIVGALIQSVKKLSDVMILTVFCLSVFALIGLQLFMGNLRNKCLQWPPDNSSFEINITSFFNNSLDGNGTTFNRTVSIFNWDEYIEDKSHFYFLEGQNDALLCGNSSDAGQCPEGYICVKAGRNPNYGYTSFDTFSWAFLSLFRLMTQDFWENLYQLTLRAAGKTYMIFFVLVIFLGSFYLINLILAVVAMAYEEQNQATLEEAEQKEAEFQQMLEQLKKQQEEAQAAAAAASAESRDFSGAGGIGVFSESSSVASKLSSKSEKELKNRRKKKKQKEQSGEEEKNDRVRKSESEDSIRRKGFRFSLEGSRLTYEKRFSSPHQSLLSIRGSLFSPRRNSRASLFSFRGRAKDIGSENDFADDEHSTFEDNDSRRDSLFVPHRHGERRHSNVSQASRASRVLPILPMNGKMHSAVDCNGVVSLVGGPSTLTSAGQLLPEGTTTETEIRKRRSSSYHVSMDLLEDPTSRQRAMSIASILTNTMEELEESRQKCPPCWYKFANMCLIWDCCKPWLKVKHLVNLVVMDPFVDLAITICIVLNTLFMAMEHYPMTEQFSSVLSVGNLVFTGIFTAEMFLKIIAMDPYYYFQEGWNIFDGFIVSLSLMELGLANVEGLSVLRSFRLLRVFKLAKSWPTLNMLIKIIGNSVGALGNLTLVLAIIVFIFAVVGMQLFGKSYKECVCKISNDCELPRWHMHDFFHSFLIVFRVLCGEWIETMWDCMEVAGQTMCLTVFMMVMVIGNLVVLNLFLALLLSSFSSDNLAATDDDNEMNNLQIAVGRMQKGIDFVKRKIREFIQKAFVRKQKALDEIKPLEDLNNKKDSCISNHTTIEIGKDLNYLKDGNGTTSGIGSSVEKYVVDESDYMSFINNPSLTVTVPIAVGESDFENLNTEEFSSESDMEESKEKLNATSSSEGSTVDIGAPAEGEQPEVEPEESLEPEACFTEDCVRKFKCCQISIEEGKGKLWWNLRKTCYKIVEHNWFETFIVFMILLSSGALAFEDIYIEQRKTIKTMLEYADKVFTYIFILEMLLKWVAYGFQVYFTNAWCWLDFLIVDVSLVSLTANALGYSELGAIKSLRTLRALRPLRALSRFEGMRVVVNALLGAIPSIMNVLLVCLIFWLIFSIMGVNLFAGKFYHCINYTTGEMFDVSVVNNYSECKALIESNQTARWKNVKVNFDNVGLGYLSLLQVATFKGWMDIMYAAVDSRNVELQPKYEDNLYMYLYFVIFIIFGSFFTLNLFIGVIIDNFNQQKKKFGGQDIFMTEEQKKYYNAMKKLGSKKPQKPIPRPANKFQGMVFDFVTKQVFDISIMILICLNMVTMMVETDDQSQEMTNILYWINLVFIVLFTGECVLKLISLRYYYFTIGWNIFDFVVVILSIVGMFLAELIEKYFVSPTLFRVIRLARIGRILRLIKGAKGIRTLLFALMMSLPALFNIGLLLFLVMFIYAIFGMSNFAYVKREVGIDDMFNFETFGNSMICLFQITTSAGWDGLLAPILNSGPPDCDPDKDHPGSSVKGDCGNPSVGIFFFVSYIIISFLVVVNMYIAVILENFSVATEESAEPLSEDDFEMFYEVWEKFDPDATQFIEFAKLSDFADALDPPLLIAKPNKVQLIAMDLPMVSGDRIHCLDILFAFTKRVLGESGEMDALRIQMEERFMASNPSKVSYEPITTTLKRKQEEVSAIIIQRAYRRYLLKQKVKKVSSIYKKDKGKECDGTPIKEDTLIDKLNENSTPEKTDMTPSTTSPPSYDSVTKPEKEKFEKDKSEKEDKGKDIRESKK

## CCCCCc1cc(O)c(C/C=C(\C)CCC=C(C)C)c(O)c1C(=O)O [CBGA, cannabigerolic acid]
[1]; NaV1.1 concentration-response
  Slope (Hill slope coefficient): 2.6 ± 0.5
[1]; NaV1.1 peak current, 0.1–100 µM, 5 min exposure
  IC50: 13.6 ± 1.1 µM
[2]; NaV1.2 concentration-response
  Slope (Hill slope coefficient): 2.2 ± 0.4
[2]; NaV1.2 peak current, 0.1–100 µM, 5 min exposure
  IC50: 14.7 ± 1.1 µM
[3]; NaV1.6 concentration-response
  Slope (Hill slope coefficient): 2.3 ± 0.6
[3]; NaV1.6 peak current, 0.1–100 µM, 5 min exposure
  IC50: 12 ± 1.2 µM
[4]; NaV1.7 concentration-response
  Slope (Hill slope coefficient): 2.5 ± 0.4
[4]; NaV1.7 peak current, 0.1–100 µM, 5 min exposure
  IC50: 16.4 ± 1.1 µM
[5]; SSFI
  Inactivation △ V0.5 inact: 1.0 ± 1.29 mV
[5]
  Activation △ Slope factor: 3.1 ± 1.7
  Activation △ V0.5 act: 3.9 ± 1.2** mV
  Inactivation △ τinact SSFI at 5 mV: 0.4 ± 0.1*
[6]; SSFI
  Inactivation △ V0.5 inact: −3.0 ± 1.5 mV
  Inactivation △ slope factor: 2.5 ± 0.8**
[6]
  Activation △ Slope factor: 1.9 ± 1.0
  Activation △ V0.5 act: 1.8 ± 2.3 mV
  Inactivation △ τinact SSFI at 5 mV: 0.08 ± 0.1
[7]; SSFI
  Inactivation △ V0.5 inact: −5.5 ± 2.1* mV
  Inactivation △ slope factor: 1.3 ± 0.5*
[7]
  Activation △ Slope factor: 1.1 ± 0.2***
  Activation △ V0.5 act: 4.6 ± 1.7* mV
  Inactivation △ τinact SSFI at 5 mV: 0.3 ± 0.06***
[8]
  Effect against hyperthermia-induced seizures: anti-convulsant properties
6-Hz acute seizure model
  Effect in 6-Hz acute seizure model: proconvulsive effects
